# Measurements as given in BindingDB's records for doi:10.1021/jm061152t (Abbott Laboratories, 2007).
# Where “and” joins values, the source holds several entries; their conditions need not be identical. Equal values may be shown once.
# Columns and labels:
# [1] = molecular target: Apoptosis regulator Bcl-2 (Homo sapiens, UniProt P10415); assay: Fluorescence Polarization Assay and FL5.12 Cellular Assay
# Description: (§1) The binding affinities (Ki) of compounds were determined using fluorescence polarization assays (FPA) that measure their ability to competitively displace a Bad-derived peptide from Bcl-xL. Compound efficacy (EC50) in a cellular context was evaluated by testing their ability to reverse the protection from cytokine withdrawal afforded by overexpression of Bcl-xL in the IL-3 dependent murine pro-B cell line FL5.12.
# Bcl-2-like protein 1 [2] = molecular target: T1, Bcl-2-like protein 1 (Homo sapiens, UniProt Q07817); assay: Fluorescence Polarization (FP) Assay and FL5.12 Cellular Assay; conditions: pH 7.4; 25 °C
# Description: as §1, with “Bcl-xL. […]” for “Bcl-xL.”
# Bcl-2-like protein 1 [3] = molecular target: T1, Bcl-2-like protein 1; assay: Fluorescence Polarization Assay and FL5.12 Cellular Assay
# Description: as §1
# [4] = The binding affinities (Ki) of compounds were determined using fluorescence polarization assays (FPA) that measure their ability to competitively displace a Bad-derived peptide from Bcl-xL. Compound efficacy (EC50) in a cellular context was evaluated by testing their ability to reverse the protection from cytokine w
# T1 sequence (Q07817 whole entry): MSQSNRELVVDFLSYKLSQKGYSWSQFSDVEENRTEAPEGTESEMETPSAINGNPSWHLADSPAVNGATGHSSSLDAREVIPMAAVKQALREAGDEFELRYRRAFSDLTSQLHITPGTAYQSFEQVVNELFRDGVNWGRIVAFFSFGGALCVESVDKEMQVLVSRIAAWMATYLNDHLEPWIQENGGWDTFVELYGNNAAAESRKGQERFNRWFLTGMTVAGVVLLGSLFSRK
# Chain of Apoptosis regulator Bcl-2 (P10415 whole entry): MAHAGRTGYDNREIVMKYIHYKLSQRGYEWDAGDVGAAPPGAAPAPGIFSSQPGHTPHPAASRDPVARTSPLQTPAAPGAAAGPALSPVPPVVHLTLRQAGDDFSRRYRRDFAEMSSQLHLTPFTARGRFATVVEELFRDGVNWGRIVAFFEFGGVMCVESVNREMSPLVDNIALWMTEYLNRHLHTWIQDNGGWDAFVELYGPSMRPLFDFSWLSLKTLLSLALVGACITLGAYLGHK
Structure (SMILES),EC50 [1],Ki [1],EC50 (Bcl-2-like protein 1 [2]),IC50 (Bcl-2-like protein 1 [2]),Ki (Bcl-2-like protein 1 [2]),Ki (Bcl-2-like protein 1 [3]),EC50 [4]
CCCCC1(OC)CCN(c2ccc(C(=O)NS(=O)(=O)c3ccc(N[C@H](CCN(C)C)CSc4ccccc4)c([N+](=O)[O-])c3)cc2)CC1 [4-(4-butyl-4-methoxypiperidin-1-yl)-N-[(4-{[(2R)-4-(dimethylamino)-1-(phenylsulfanyl)butan-2-yl]amino}-3-nitrobenzene)sulfonyl]benzamide],3000 nM,20 nM,8000 nM,312 nM,1.3 nM,–,–
CN(C)CC[C@H](CSc1ccccc1)Nc1ccc(S(=O)(=O)NC(=O)c2ccc(N3CCN(Cc4ccccc4-c4ccc(S(C)(=O)=O)cc4)CC3)cc2)cc1[N+](=O)[O-] [N-[(4-{[(2R)-4-(dimethylamino)-1-(phenylsulfanyl)butan-2-yl]amino}-3-nitrobenzene)sulfonyl]-4-(4-{[2-(4-methanesulfonylphenyl)phenyl]methyl}piperazin-1-yl)benzamide],–,–,–,–,–,9.1 nM,460 nM and 530 nM
